Test results from article PMC3927586, “Protein kinase C-delta inactivation inhibits the proliferation and survival of cancer stem cells in culture and in vivo” (BMC Cancer, 2014).

Columns and labels:
recombinant PKCδ = molecular target: T1, recombinant PKCδ (Homo sapiens, UniProt Q05655); assay: PKC kinase activity assay (Z-lyte), PKCδ; type: biochemical; details: in vitro kinase assay; read-out: PKCδ IC50
T1 construct: purchased Invitrogen
Procedure: (§1) Assays were carried out using recombinant PKCδ or PKCα, (Invitrogen) and the Z-lyte Kinase Assays (Invitrogen) with a “PKC-kinase-specific” peptide substrate. FRET interactions produce a change in fluorescence (ex455/ex520) upon phosphorylation. The kit was used according to the manufacturer’s instructions.

recombinant PKCα = molecular target: T2, recombinant PKCα (Homo sapiens, UniProt P17252); assay: PKC kinase activity assay (Z-lyte), PKCα; type: biochemical; details: in vitro kinase assay; read-out: PKCα IC50
T2 construct: purchased Invitrogen
Procedure: as §1

PCSC cells = assay: Cytotoxicity (LDH release) in pancreatic cancer stem cells; type: cell-based, human
Procedure: (§2) LDH release was assessed by spectrophotometrically measuring the oxidation of NADH in both the cells and media. Cells were seeded in 24-well plates, and exposed to PKCδ inhibitors or vehicle. After different times of exposure, cytotoxicity was quantified by a standard measurement of LDH release with the use of the LDH assay kit (Roche Molecular Biochemicals) according to the manufacturer’s protocol. Briefly, total culture medium was cleared by centrifugation. For assay of released LDH, supernatants were collected. To assess total LDH in cells, Triton X-100 was added to vehicle (control) wells to release intracellular LDH. LDH assay reagent was added to lysates or supernatants and incubated for up to 30 min at room temperature in dark, the reaction was stopped, and the absorbance was measured at 490 nm. The percentage of LDH release was then calculated as the LDH in the supernatants as a fraction of the total LDH.
Figure 2 Effects of PKCδ inhibitors on human cancer stem cells. (A) PCSC and PrCSC cells at 80% confluence were exposed to rottlerin. DMSO served as vehicle control (Vehicle). After 24 and 72 hr of exposure, cell mass was evaluated by MTT assay. Control values were normalized to 100%. p values for comparison between treatments reached significance at 24 hr of exposure (p≤0.01) for both cell types, and remained significant at 72 hr. (B) PCSC and PrCSC cells at 50% confluence were exposed to rottlerin. Cytotoxicity was evaluated by LDH-release assay. Total maximal LDH release was assigned the arbitrary value of 100% (Control). p values for comparison between effects of treatments on LDH release reached significance at 24 hr of exposure (p<0.01) for both cell types, and remained significant at 72 hr. (C) Effects of PKCδ inhibitor on tumor cell clonogenic capacity. PCSC were exposed to vehicle or rottlerin (10 μM) for 6, 18, 24, or 48 hr. Viable cells were enumerated and re-plated in media without inhibitor, and colony numbers were quantitated 15 days later. p values for comparison of treatment effects on clonogenic capacity reached significance (p=0.005) at 18 hr of exposure and remained significant for all subsequent exposure times. The insert is a photograph of stained colonies on plates. (D) Structures of staurosporine, rottlerin, second-generation (KAM1) and third-generation (BJE6-106) derivatives. (E) PCSC and PrCSC cells at 50% confluence were exposed to KAM1 at the indicated concentrations. DMSO served as vehicle control (Vehicle). Cytotoxicity was evaluated by LDH-release assay, as in panel B. p values for comparison between treatment effects on LDH release reached significance at 24 hr of exposure to 2.5 μM KAM1 for PCSC cells and at 10 μM for PrCSC (p≤0.01), and remained significant at 72 hr for all concentrations of KAM1. Error bars represent SEM.

PrCSC cells = assay: Cytotoxicity (LDH release) in prostate cancer stem cells; type: cell-based, human
Procedure: as §2
Figure 2 Effects of PKCδ inhibitors on human cancer stem cells. (A) PCSC and PrCSC cells at 80% confluence were exposed to rottlerin. DMSO served as vehicle control (Vehicle). After 24 and 72 hr of exposure, cell mass was evaluated by MTT assay. Control values were normalized to 100%. p values for comparison between treatments reached significance at 24 hr of exposure (p≤0.01) for both cell types, and remained significant at 72 hr. (B) PCSC and PrCSC cells at 50% confluence were exposed to rottlerin. Cytotoxicity was evaluated by LDH-release assay. […] Viable cells were enumerated and re-plated in media without inhibitor, and colony numbers were quantitated 15 days later. p values for comparison of treatment effects on clonogenic capacity reached significance (p=0.005) at 18 hr of exposure and remained significant for all subsequent exposure times. […] Cytotoxicity was evaluated by LDH-release assay, as in panel B. p values for comparison between treatment effects on LDH release reached significance at 24 hr of exposure to 2.5 μM KAM1 for PCSC cells and at 10 μM for PrCSC (p≤0.01), and remained significant at 72 hr for all concentrations of KAM1. […]

[1] = system: non-transformed cell lines; parameters: method as in PMID 21990324; details: cited from earlier work

T1 sequence (Q05655 whole entry): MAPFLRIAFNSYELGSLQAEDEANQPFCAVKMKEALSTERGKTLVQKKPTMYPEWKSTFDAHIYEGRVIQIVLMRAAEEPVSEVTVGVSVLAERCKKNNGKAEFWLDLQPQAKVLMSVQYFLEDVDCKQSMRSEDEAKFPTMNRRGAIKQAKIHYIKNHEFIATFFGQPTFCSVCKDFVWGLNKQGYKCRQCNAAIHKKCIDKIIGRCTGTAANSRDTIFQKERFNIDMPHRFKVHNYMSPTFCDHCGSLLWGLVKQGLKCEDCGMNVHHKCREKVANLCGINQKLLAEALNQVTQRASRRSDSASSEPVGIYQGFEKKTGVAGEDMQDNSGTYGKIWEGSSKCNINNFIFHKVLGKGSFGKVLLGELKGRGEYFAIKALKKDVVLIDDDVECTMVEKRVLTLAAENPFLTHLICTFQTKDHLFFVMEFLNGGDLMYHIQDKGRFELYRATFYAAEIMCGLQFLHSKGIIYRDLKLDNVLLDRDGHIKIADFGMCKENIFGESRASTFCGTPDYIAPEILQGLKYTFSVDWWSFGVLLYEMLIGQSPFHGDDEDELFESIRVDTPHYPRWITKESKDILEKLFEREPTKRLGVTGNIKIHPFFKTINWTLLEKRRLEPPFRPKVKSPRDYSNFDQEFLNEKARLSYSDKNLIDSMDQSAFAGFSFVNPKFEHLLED

CC1(C)C=Cc2cc(CCn3c4ccccc4c4ccccc43)cc(C(=O)/C=C/c3ccccc3)c2O1 [KAM1]
IC50 (recombinant PKCδ): 2 µM | IC50 (recombinant PKCα): 157 µM | lowest concentration inducing cytotoxicity (LDH release) in PCSC (PCSC cells): 2.5 µM | concentration at which LDH release reached significance in PCSC (PCSC cells; 24 hr of exposure, p≤0.01): 2.5 µM | lowest concentration inducing cytotoxicity (LDH release) in PrCSC (PrCSC cells): 5 µM | concentration at which LDH release reached significance in PrCSC (PrCSC cells; 24 hr of exposure, p≤0.01): 10 µM | cytotoxicity in non-transformed cell lines [1]: not producing cytotoxicity
